For experiment [1], the target named is T1, Potassium voltage-gated channel subfamily A member 3 (Homo sapiens, UniProt P22001). The experiment is classed as cell-based, CHO-K1.
In experiment [2] the target is T1, Potassium voltage-gated channel subfamily A member 3. Kind of experiment: cell-based. Also on record: species or system Blood.
Experiment [3] has the same target. Also on record: species or system Blood.

Molecules are shown by their SMILES. Where only a bound is given, the exact number is not on record here.

In ChEMBL document CHEMBL3608278 (J Med Chem, 2015) one finds IC50 data, which are given here for 8 molecules.

The IC50 is the concentration that gives 50% inhibition.

T1 sequence (P22001 whole entry): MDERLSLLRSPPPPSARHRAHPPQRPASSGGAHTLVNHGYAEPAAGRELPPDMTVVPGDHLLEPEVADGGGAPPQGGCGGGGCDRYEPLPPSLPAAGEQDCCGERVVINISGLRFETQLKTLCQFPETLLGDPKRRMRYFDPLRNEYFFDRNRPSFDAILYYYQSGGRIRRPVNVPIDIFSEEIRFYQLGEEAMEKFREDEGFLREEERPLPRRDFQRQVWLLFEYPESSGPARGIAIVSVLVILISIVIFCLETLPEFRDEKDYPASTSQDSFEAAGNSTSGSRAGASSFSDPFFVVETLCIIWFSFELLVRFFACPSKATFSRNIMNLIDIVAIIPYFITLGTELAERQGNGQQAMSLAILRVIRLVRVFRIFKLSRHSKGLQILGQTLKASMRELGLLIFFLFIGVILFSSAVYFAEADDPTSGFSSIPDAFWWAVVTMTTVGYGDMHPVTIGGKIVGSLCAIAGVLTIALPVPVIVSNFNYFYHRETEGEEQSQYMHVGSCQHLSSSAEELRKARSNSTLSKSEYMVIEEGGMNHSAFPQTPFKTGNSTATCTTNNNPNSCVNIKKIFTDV

With `CC[C@H](C)[C@@H]1NC(=O)[C@@H](NC(=O)[C@H](CO)NC(=O)[C@@H](N)CCCNC(=N)N)CSSC[C@@H](C(=O)O)NC(=O)[C@H]([C@@H](C)O)NC(=O)CNC(=O)[C@@H]2CSSC[C@@H]3NC(=O)[C@H](CCC(N)=O)NC(=O)[C@H](Cc4ccccc4)NC(=O)[C@H](C)NC(=O)[C@H]([C@@H](C)O)NC(=O)[C@H](CSSC[C@H](NC(=O)[C@H](Cc4ccccc4)NC(=O)[C@H](CO)NC(=O)[C@H](CC(C)C)NC(=O)[C@H](CCCNC(=N)N)NC(=O)[C@H](Cc4ccc(O)cc4)NC(=O)[C@H](CCCCN)NC(=O)[C@H](Cc4cccc5ccccc45)NC(=O)[C@H](CO)NC(=O)[C@H](Cc4cnc[nH]4)NC(=O)[C@H](CCCCN)NC3=O)C(=O)N[C@@H](CCCNC(=N)N)C(=O)N[C@@H](CCCCN)C(=O)N[C@@H]([C@@H](C)O)C(=O)N2)NC(=O)[C@H](CCCNC(=N)N)NC(=O)[C@H](CO)NC(=O)[C@H](CCCCN)NC(=O)[C@@H]2CCCN2C(=O)[C@H]([C@@H](C)CC)NC(=O)[C@H]([C@@H](C)O)NC(=O)[C@H](CC(=O)O)NC1=O`, the IC50 was found to be 0.853 nM in experiment [1], 6.59 nM in experiment [2] and 8.13 nM in experiment [3].
The corresponding values for `CC[C@H](C)[C@@H]1NC(=O)[C@@H](NC(=O)[C@H](CO)NC(=O)[C@@H](N)CCCNC(=N)N)CSSC[C@@H](C(=O)O)NC(=O)[C@H]([C@@H](C)O)NC(=O)CNC(=O)[C@@H]2CSSC[C@@H]3NC(=O)[C@H](CCC(N)=O)NC(=O)[C@H](Cc4ccccc4)NC(=O)[C@H](C)NC(=O)[C@H]([C@@H](C)O)NC(=O)[C@H](CSSC[C@H](NC(=O)[C@H](Cc4ccccc4)NC(=O)[C@H](CO)NC(=O)[C@H](CC(C)C)NC(=O)[C@H](CCCNC(=N)N)NC(=O)[C@H](Cc4ccc(O)cc4)NC(=O)[C@H](Cc4cccc5ccccc45)NC(=O)[C@H](CCSC)NC(=O)[C@H](CO)NC(=O)[C@H](Cc4cnc[nH]4)NC(=O)[C@H](CCCCN)NC3=O)C(=O)N[C@@H](CCCNC(=N)N)C(=O)N[C@@H](CCCCN)C(=O)N[C@@H]([C@@H](C)O)C(=O)N2)NC(=O)[C@H](CCCNC(=N)N)NC(=O)[C@H](CO)NC(=O)[C@H](CCCCN)NC(=O)[C@@H]2CCCN2C(=O)[C@H]([C@@H](C)CC)NC(=O)[C@H]([C@@H](C)O)NC(=O)[C@H](CC(=O)O)NC1=O` are above 3.33 nM, above 100 nM and above 100 nM.
In the case of `CC[C@H](C)[C@@H]1NC(=O)[C@@H](NC(=O)[C@H](CO)NC(=O)[C@@H](N)CCCNC(=N)N)CSSC[C@@H](C(=O)O)NC(=O)[C@H]([C@@H](C)O)NC(=O)CNC(=O)[C@@H]2CSSC[C@@H]3NC(=O)[C@H](CCC(N)=O)NC(=O)[C@H](Cc4ccccc4)NC(=O)[C@H](C)NC(=O)[C@H]([C@@H](C)O)NC(=O)[C@H](CSSC[C@H](NC(=O)[C@H](Cc4ccccc4)NC(=O)[C@H](CO)NC(=O)[C@H](Cc4cccc5ccccc45)NC(=O)[C@H](CCCNC(=N)N)NC(=O)[C@H](Cc4ccc(O)cc4)NC(=O)[C@H](CCCCN)NC(=O)[C@H](CCSC)NC(=O)[C@H](CO)NC(=O)[C@H](Cc4cnc[nH]4)NC(=O)[C@H](CCCCN)NC3=O)C(=O)N[C@@H](CCCNC(=N)N)C(=O)N[C@@H](CCCCN)C(=O)N[C@@H]([C@@H](C)O)C(=O)N2)NC(=O)[C@H](CCCNC(=N)N)NC(=O)[C@H](CO)NC(=O)[C@H](CCCCN)NC(=O)[C@@H]2CCCN2C(=O)[C@H]([C@@H](C)CC)NC(=O)[C@H]([C@@H](C)O)NC(=O)[C@H](CC(=O)O)NC1=O`, the IC50 in experiment [1] was 0.103 nM; in experiment [2] it was 0.061 nM; in experiment [3], 0.084 nM.
Consider `CC[C@H](C)[C@@H]1NC(=O)[C@@H](NC(=O)[C@H](CO)NC(=O)[C@@H](N)CCCNC(=N)N)CSSC[C@@H](C(=O)O)NC(=O)[C@H]([C@@H](C)O)NC(=O)CNC(=O)[C@@H]2CSSC[C@@H]3NC(=O)[C@H](CCC(N)=O)NC(=O)[C@H](Cc4ccccc4)NC(=O)[C@H](C)NC(=O)[C@H]([C@@H](C)O)NC(=O)[C@H](CSSC[C@H](NC(=O)[C@H](Cc4cccc5ccccc45)NC(=O)[C@H](CO)NC(=O)[C@H](CC(C)C)NC(=O)[C@H](CCCNC(=N)N)NC(=O)[C@H](Cc4ccc(O)cc4)NC(=O)[C@H](CCCCN)NC(=O)[C@H](CCSC)NC(=O)[C@H](CO)NC(=O)[C@H](Cc4cnc[nH]4)NC(=O)[C@H](CCCCN)NC3=O)C(=O)N[C@@H](CCCNC(=N)N)C(=O)N[C@@H](CCCCN)C(=O)N[C@@H]([C@@H](C)O)C(=O)N2)NC(=O)[C@H](CCCNC(=N)N)NC(=O)[C@H](CO)NC(=O)[C@H](CCCCN)NC(=O)[C@@H]2CCCN2C(=O)[C@H]([C@@H](C)CC)NC(=O)[C@H]([C@@H](C)O)NC(=O)[C@H](CC(=O)O)NC1=O`, for which the IC50 in experiment [1] turned out to be 0.223 nM; in experiment [2], 1.07 nM; in experiment [3], 2.84 nM.
Regarding `CC[C@H](C)[C@@H]1NC(=O)[C@@H](NC(=O)[C@H](CO)NC(=O)[C@@H](N)CCCNC(=N)N)CSSC[C@@H](C(=O)O)NC(=O)[C@H]([C@@H](C)O)NC(=O)CNC(=O)[C@@H]2CSSC[C@@H]3NC(=O)[C@H](CCC(N)=O)NC(=O)[C@H](Cc4ccccc4)NC(=O)[C@H](C)NC(=O)[C@H]([C@@H](C)O)NC(=O)[C@H](CSSC[C@H](NC(=O)[C@H](Cc4ccccc4)NC(=O)[C@H](CO)NC(=O)[C@H](CC(C)C)NC(=O)[C@H](CCCNC(=N)N)NC(=O)[C@H](Cc4ccc(O)cc4)NC(=O)[C@H](CCCCN)NC(=O)[C@H](CCSC)NC(=O)[C@H](CO)NC(=O)[C@H](Cc4cnc[nH]4)NC(=O)[C@H](CCCCN)NC3=O)C(=O)N[C@@H](Cc3cccc4ccccc34)C(=O)N[C@@H](CCCCN)C(=O)N[C@@H]([C@@H](C)O)C(=O)N2)NC(=O)[C@H](CCCNC(=N)N)NC(=O)[C@H](CO)NC(=O)[C@H](CCCCN)NC(=O)[C@@H]2CCCN2C(=O)[C@H]([C@@H](C)CC)NC(=O)[C@H]([C@@H](C)O)NC(=O)[C@H](CC(=O)O)NC1=O`, the IC50 in experiment [1] was above 3.33 nM; in experiment [2] it was 4.72 nM; in experiment [3] it was 8.08 nM.
The corresponding values for `CC[C@H](C)[C@@H]1NC(=O)[C@@H](NC(=O)[C@H](CO)NC(=O)[C@@H](N)CCC(=O)O)CSSC[C@@H](C(=O)O)NC(=O)[C@H]([C@@H](C)O)NC(=O)CNC(=O)[C@@H]2CSSC[C@@H]3NC(=O)[C@H](CCC(N)=O)NC(=O)[C@H](Cc4ccccc4)NC(=O)[C@H](C)NC(=O)[C@H]([C@@H](C)O)NC(=O)[C@H](CSSC[C@H](NC(=O)[C@H](Cc4ccccc4)NC(=O)[C@H](CO)NC(=O)[C@H](CC(C)C)NC(=O)[C@H](CCCNC(=N)N)NC(=O)[C@H](Cc4ccc(O)cc4)NC(=O)[C@H](CCCCN)NC(=O)[C@H](CCSC)NC(=O)[C@H](CO)NC(=O)[C@H](Cc4cnc[nH]4)NC(=O)[C@H](CCCCN)NC3=O)C(=O)N[C@@H](CCCNC(=N)N)C(=O)N[C@@H](CCCCN)C(=O)N[C@@H]([C@@H](C)O)C(=O)N2)NC(=O)[C@H](CCCNC(=N)N)NC(=O)[C@H](CO)NC(=O)[C@H](CCCCN)NC(=O)[C@@H]2CCCN2C(=O)[C@H]([C@@H](C)CC)NC(=O)[C@H]([C@@H](C)O)NC(=O)[C@H](CC(=O)O)NC1=O` are 0.151 nM, 0.214 nM and 0.249 nM.
As for `CC[C@H](C)[C@@H]1NC(=O)[C@@H](NC(=O)[C@H](CCC(=O)O)NC(=O)[C@@H](N)CCCNC(=N)N)CSSC[C@@H](C(=O)O)NC(=O)[C@H]([C@@H](C)O)NC(=O)CNC(=O)[C@@H]2CSSC[C@@H]3NC(=O)[C@H](CCC(N)=O)NC(=O)[C@H](Cc4ccccc4)NC(=O)[C@H](C)NC(=O)[C@H]([C@@H](C)O)NC(=O)[C@H](CSSC[C@H](NC(=O)[C@H](Cc4ccccc4)NC(=O)[C@H](CO)NC(=O)[C@H](CC(C)C)NC(=O)[C@H](CCCNC(=N)N)NC(=O)[C@H](Cc4ccc(O)cc4)NC(=O)[C@H](CCCCN)NC(=O)[C@H](CCSC)NC(=O)[C@H](CO)NC(=O)[C@H](Cc4cnc[nH]4)NC(=O)[C@H](CCCCN)NC3=O)C(=O)N[C@@H](CCCNC(=N)N)C(=O)N[C@@H](CCCCN)C(=O)N[C@@H]([C@@H](C)O)C(=O)N2)NC(=O)[C@H](CCCNC(=N)N)NC(=O)[C@H](CO)NC(=O)[C@H](CCCCN)NC(=O)[C@@H]2CCCN2C(=O)[C@H]([C@@H](C)CC)NC(=O)[C@H]([C@@H](C)O)NC(=O)[C@H](CC(=O)O)NC1=O`, the results for the IC50 in experiment [1], in experiment [2] and in experiment [3] were 0.095 nM, 0.029 nM and 0.039 nM, respectively.
In the case of `CC[C@H](C)[C@@H]1NC(=O)[C@H]([C@@H](C)O)NC(=O)[C@H](CC(=O)O)NC(=O)[C@H](CCC(=O)O)NC(=O)[C@@H](NC(=O)[C@H](CO)NC(=O)[C@@H](N)CCCNC(=N)N)CSSC[C@@H](C(=O)O)NC(=O)[C@H]([C@@H](C)O)NC(=O)CNC(=O)[C@@H]2CSSC[C@@H]3NC(=O)[C@H](CCC(N)=O)NC(=O)[C@H](Cc4ccccc4)NC(=O)[C@H](C)NC(=O)[C@H]([C@@H](C)O)NC(=O)[C@H](CSSC[C@H](NC(=O)[C@H](Cc4ccccc4)NC(=O)[C@H](CO)NC(=O)[C@H](CC(C)C)NC(=O)[C@H](CCCNC(=N)N)NC(=O)[C@H](Cc4ccc(O)cc4)NC(=O)[C@H](CCCCN)NC(=O)[C@H](CCSC)NC(=O)[C@H](CO)NC(=O)[C@H](Cc4cnc[nH]4)NC(=O)[C@H](CCCCN)NC3=O)C(=O)N[C@@H](CCCNC(=N)N)C(=O)N[C@@H](CCCCN)C(=O)N[C@@H]([C@@H](C)O)C(=O)N2)NC(=O)[C@H](CCCNC(=N)N)NC(=O)[C@H](CO)NC(=O)[C@H](CCCCN)NC(=O)[C@@H]2CCCN2C1=O`, the IC50 in experiment [1] worked out at 0.075 nM; in experiment [2], 0.031 nM; in experiment [3], 0.05 nM.
